Results taken from patent US12247015B2, “3-amino-4H-benzo[e][1,2,4]thiadiazine 1,1-dioxide derivatives as inhibitors of MRGX2” (Solent Therapeutics, LLC, priority 2019, dated 2025).

Target: hMRGX2 (CHO-K1 cells overexpressing MRGX2) (Homo sapiens (Human), UniProt Q96LB1)
Assay: In vitro inhibition (EC50) of intracellular calcium flux, FLIPR Tetra, substance P stimulation
Type: cell-based
Settings: stimulated with MRGX2 ligand substance P, FLIPR Calcium 5, read-out: hMRGX2 Cellular Potency (pEC50) (converted)
Experimental: In Vitro Inhibition (EC50) of Intracellular Calcium Flux
The release of intracellular calcium following stimulation of cells with substance P in the presence or absence of inhibitor compounds was measured using the FLIPR Tetra® system. CHO-K1 cells overexpressing MRGX2 were seeded into 384-well plates (Black clear bottom, TC-treated, Fisher #07-200-655) and incubated overnight to allow for cell attachment. Media was removed, and 1× loading buffer (FLIPR® Calcium 5 assay solution, Molecular Devices, per manufacturer specifications) was added. The plates were incubated at 37° C. for 30 minutes. Test compounds were added to cells (11-point dose response, 10 µM maximum concentration) and fluorescence measured (120 seconds, in real time) using the FLIPR Tetra® system. Immediately following, MRGX2 ligand substance P was added at a final concentration of 1 µM and fluorescence measured (120 seconds, in real time) using the FLIPR Tetra® system. The data for the examples are reported as pEC50.

Sequence of hMRGX2 (CHO-K1 cells overexpressing MRGX2) (Q96LB1 whole entry): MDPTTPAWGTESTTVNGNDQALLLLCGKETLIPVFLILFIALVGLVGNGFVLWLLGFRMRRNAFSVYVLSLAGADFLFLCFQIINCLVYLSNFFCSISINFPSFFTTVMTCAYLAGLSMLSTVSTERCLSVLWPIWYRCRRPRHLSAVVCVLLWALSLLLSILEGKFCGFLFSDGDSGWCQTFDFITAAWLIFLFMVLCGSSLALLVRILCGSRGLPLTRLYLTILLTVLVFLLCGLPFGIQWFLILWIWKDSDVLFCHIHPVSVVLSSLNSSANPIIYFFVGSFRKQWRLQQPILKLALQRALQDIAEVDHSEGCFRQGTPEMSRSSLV

SMILES | EC50
O=S1(=O)N=C(NCc2ccccn2)Nc2c(-c3cc(F)cc(F)c3F)cccc21 [Example 131, 3-((pyridin-2-ylmethyl)amino)-5-(2,3,5-trifluorophenyl)-4H-benzo[e][1,2,4]thiadiazine 1,1-dioxide] | 0.0885 µM
CC(C)c1ccc(NC2=NS(=O)(=O)c3cccc(-n4cccn4)c3N2)cc1 [Example 100, 3-((4-isopropylphenyl)amino)-5-(1H-pyrazol-1-yl)-4H-benzo[e][1,2,4]thiadiazine 1,1-dioxide] | 0.766 µM
O=S1(=O)N=C(NCCc2ccccn2)Nc2c(-c3cc(F)cc(F)c3)cccc21 [Example 80, 5-(3,5-difluorophenyl)-3-((2-(pyridin-2-yl)ethyl)amino)-4H-benzo[e][1,2,4]thiadiazine 1,1-dioxide] | 0.897 µM
CC(C)c1ccc(NC2=NS(=O)(=O)c3cccc(-c4ccccc4Cl)c3N2)cc1 [Example 112, 5-(2-chlorophenyl)-3-((4-isopropylphenyl)amino)-4H-benzo[e][1,2,4]thiadiazine 1,1-dioxide] | 0.165 µM
COC(C)CNC1=NS(=O)(=O)c2cccc(-c3cc(F)cc(F)c3)c2N1 (stereo not shown) [Example 166, 5-(3,5-difluorophenyl)-3-((2-methoxypropyl)amino)-4H-benzo[e][1,2,4]thiadiazine 1,1-dioxide] | 0.34 µM
COCCNC1=NS(=O)(=O)c2cccc(-c3cccc(F)c3C3CC3)c2N1 [Example 156, 5-(2-cyclopropyl-3-fluorophenyl)-3-((2-methoxyethyl)amino)-4H-benzo[e][1,2,4]thiadiazine 1,1-dioxide] | 0.0475 µM
O=S1(=O)N=C(NCCc2cccnc2)Nc2c(-c3cccc(F)c3Cl)cccc21 [Example 69, 5-(2-chloro-3-fluorophenyl)-3-((2-(pyridin-3-yl)ethyl)amino)-4H-benzo[e][1,2,4]thiadiazine 1,1-dioxide] | 0.601 µM
O=S1(=O)N=C(NCCc2ccccn2)Nc2c(-c3cccc(F)c3Cl)cccc21 [Example 67, 5-(2-chloro-3-fluorophenyl)-3-((2-(pyridin-2-yl)ethyl)amino)-4H-benzo[e][1,2,4]thiadiazine 1,1-dioxide] | 0.0366 µM
O=S1(=O)N=C(NCc2ncco2)Nc2c(-c3cccc(F)c3F)cccc21 [Example 27, 5-(2,3-difluorophenyl)-3-((oxazol-2-ylmethyl)amino)-4H-benzo[e][1,2,4]thiadiazine 1,1-dioxide] | 0.344 µM
COC(C)CNC1=NS(=O)(=O)c2cccc(-c3ccccc3Cl)c2N1 (stereo not shown) [Example 40, 5-(2-chlorophenyl)-3-((2-methoxypropyl)amino)-4H-benzo[e][1,2,4]thiadiazine 1,1-dioxide] | 0.0762 µM
Cc1cc(-c2cccc3c2NC(Nc2ccc(C(C)C)cc2)=NS3(=O)=O)n[nH]1 [Example 98, 3-((4-isopropylphenyl)amino)-5-(5-methyl-1H-pyrazol-3-yl)-4H-benzo[e][1,2,4]thiadiazine 1,1-dioxide] | 0.289 µM
O=S1(=O)N=C(NCc2ccccn2)Nc2c(-c3cc(F)ccc3F)cccc21 [Example 139, 5-(2,5-difluorophenyl)-3-((pyridin-2-ylmethyl)amino)-4H-benzo[e][1,2,4]thiadiazine 1,1-dioxide] | 0.246 µM
O=S1(=O)N=C(NCC(F)F)Nc2c(-c3ccccc3Cl)cccc21 [Example 44, 5-(2-chlorophenyl)-3-((2,2-difluoroethyl)amino)-4H-benzo[e][1,2,4]thiadiazine 1,1-dioxide] | 0.186 µM
COCCNC1=NS(=O)(=O)c2cccc(-c3ccccc3C(F)(F)F)c2N1 [Example 124, 3-((2-methoxyethyl)amino)-5-(2-(trifluoromethyl)phenyl)-4H-benzo[e][1,2,4]thiadiazine 1,1-dioxide] | 0.0644 µM
CCNC1=NS(=O)(=O)c2cccc(-c3cccc(F)c3F)c2N1 [Example 165, 5-(2,3-difluorophenyl)-3-(ethylamino)-4H-benzo[e][1,2,4]thiadiazine 1,1-dioxide] | 0.288 µM
O=S1(=O)N=C(NCC2CC2)Nc2c(-c3cccc(F)c3Cl)cccc21 [Example 29, 5-(2-chloro-3-fluorophenyl)-3-((cyclopropylmethyl)amino)-4H-benzo[e][1,2,4]thiadiazine 1,1-dioxide] | 0.0268 µM
O=S1(=O)N=C(Nc2ccccc2)Nc2c(C3CC3)cccc21 [Example 121, 5-cyclopropyl-3-(phenylamino)-4H-benzo[e][1,2,4]thiadiazine 1,1-dioxide] | 0.431 µM
O=S1(=O)N=C(NCc2ncccc2F)Nc2c(C3CC3)cccc21 [Example 119, 5-cyclopropyl-3-(((3-fluoropyridin-2-yl)methyl)amino)-4H-benzo[e][1,2,4]thiadiazine 1,1-dioxide] | 0.484 µM
Cn1cccc(CNC2=NS(=O)(=O)c3cccc(-c4cccc(F)c4Cl)c3N2)c1=O [Example 46, 3-(((5-(2-chloro-3-fluorophenyl)-1,1-dioxido-4H-benzo[e][1,2,4]thiadiazin-3-yl)amino)methyl)-1-methylpyridin-2(1H)-one] | 0.0879 µM
CNC1=NS(=O)(=O)c2cccc(-c3cccc(F)c3F)c2N1 [Example 26, 5-(2,3-difluorophenyl)-3-(methylamino)-4H-benzo[e][1,2,4]thiadiazine 1,1-dioxide] | 0.389 µM

The next lines start with the values.

EC50 | SMILES
0.229 µM | CC(C)NC1=NS(=O)(=O)c2cccc(-c3cccc(F)c3Cl)c2N1 [Example 158, 5-(2-chloro-3-fluorophenyl)-3-(isopropylamino)-4H-benzo[e][1,2,4]thiadiazine 1,1-dioxide]
0.0615 µM | N#Cc1c(F)cccc1-c1cccc2c1NC(NCc1ncco1)=NS2(=O)=O [Example 161, 2-fluoro-6-(3-((oxazol-2-ylmethyl)amino)-1,1-dioxido-4H-benzo[e][1,2,4]thiadiazin-5-yl)benzonitrile]
0.0398 µM | COc1ccc(CCNC2=NS(=O)(=O)c3cccc(-c4cccc(F)c4Cl)c3N2)cc1 [Example 72, 5-(2-chloro-3-fluorophenyl)-3-((4-methoxyphenethyl)amino)-4H-benzo[e][1,2,4]thiadiazine 1,1-dioxide]
0.841 µM | COCCNC1=NS(=O)(=O)c2cccc(-c3cccc(Cl)c3F)c2N1 [Example 135, 5-(3-chloro-2-fluorophenyl)-3-((2-methoxyethyl)amino)-4H-benzo[e][1,2,4]thiadiazine 1,1-dioxide]
0.0701 µM | Cc1n[nH]cc1-c1cccc2c1NC(Nc1ccc(C(C)C)cc1)=NS2(=O)=O [Example 106, 3-((4-isopropylphenyl)amino)-5-(3-methyl-1H-pyrazol-4-yl)-4H-benzo[e][1,2,4]thiadiazine 1,1-dioxide]
0.0548 µM | Cc1nn(C)cc1-c1cccc2c1NC(Nc1cccc(C(C)C)c1)=NS2(=O)=O [Example 115, 5-(1,3-dimethyl-1H-pyrazol-4-yl)-3-((3-isopropylphenyl)amino)-4H-benzo[e][1,2,4]thiadiazine 1,1-dioxide]
0.0352 µM | CC(C)c1ccc(NC2=NS(=O)(=O)c3cccc(C(C)C)c3N2)cc1 [Example 110, 5-isopropyl-3-((4-isopropylphenyl)amino)-4H-benzo[e][1,2,4]thiadiazine 1,1-dioxide]
0.0805 µM | O=S1(=O)N=C(NCC2CCC2)Nc2c(-c3cccc(F)c3F)cccc21 [Example 22, 3-((cyclobutylmethyl)amino)-5-(2,3-difluorophenyl)-4H-benzo[e][1,2,4]thiadiazine 1,1-dioxide]
0.0927 µM | CNC1=NS(=O)(=O)c2cccc(-c3ccc(C)cc3Cl)c2N1 [Example 92, 5-(2-chloro-4-methylphenyl)-3-(methylamino)-4H-benzo[e][1,2,4]thiadiazine 1,1-dioxide]
0.146 µM | CC(NC1=NS(=O)(=O)c2cc(F)cc(-c3cccc(F)c3Cl)c2N1)c1cscn1 (stereo not shown) [Example 9, 5-(2-chloro-3-fluorophenyl)-7-fluoro-3-((1-(thiazol-4-yl)ethyl)amino)-4H-benzo[e][1,2,4]thiadiazine 1,1-dioxide]
0.225 µM | O=S1(=O)N=C(NCc2ccco2)Nc2c(-c3cc(F)cc(F)c3)cccc21 [Example 164, 5-(3,5-difluorophenyl)-3-((furan-2-ylmethyl)amino)-4H-benzo[e][1,2,4]thiadiazine 1,1-dioxide]
0.598 µM | CNC1=NS(=O)(=O)c2cccc(-c3cc(F)cc(F)c3F)c2N1 [Example 96, 3-(methylamino)-5-(2,3,5-trifluorophenyl)-4H-benzo[e][1,2,4]thiadiazine 1,1-dioxide]
0.589 µM | CNC1=NS(=O)(=O)c2cc(C)cc(-c3cccc(F)c3Cl)c2N1 [Example 97, 5-(2-chloro-3-fluorophenyl)-7-methyl-3-(methylamino)-4H-benzo[e][1,2,4]thiadiazine 1,1-dioxide]
0.0641 µM | CO[C@H](C)CNC1=NS(=O)(=O)c2cccc(-c3cccc(F)c3F)c2N1 (single isomer, unassigned) [Example 24]
2.75 µM | CO[C@@H](C)CNC1=NS(=O)(=O)c2cccc(-c3cccc(F)c3F)c2N1 [Example 25, (S)-5-(2,3-difluorophenyl)-3-((2-methoxypropyl)amino)-4H-benzo[e][1,2,4]thiadiazine 1,1-dioxide]
0.24 µM | CCC(CNC1=NS(=O)(=O)c2cccc(-c3cc(F)cc(F)c3)c2N1)OC (stereo not shown) [Example 87, 5-(3,5-difluorophenyl)-3-((2-methoxybutyl)amino)-4H-benzo[e][1,2,4]thiadiazine 1,1-dioxide]
0.017 µM | O=S1(=O)N=C(NCc2cccc(F)n2)Nc2c(-c3cccc(F)c3Cl)cccc21 [Example 148, 5-(2-chloro-3-fluorophenyl)-3-(((6-fluoropyridin-2-yl)methyl)amino)-4H-benzo[e][1,2,4]thiadiazine 1,1-dioxide]
